{"source": "patent US20230165806A1", "about": "“Topical Therapy of Skin Fibrosis and Melanoma” (Board of Regents, The University of Texas System, priority 2021, published 2023)", "assay": "Solubility of NAVI in COA ionic liquid", "type": "physicochemical", "description": "Skin melanoma remains one of the fastest-growing and the most common types of cancer in the United States and worldwide. Although primary melanoma can be removed by surgery if detected, advanced metastatic melanoma cannot be managed by surgery alone and thus an alternative and effective therapeutic approach is required. Direct local application of anti-cancer drugs may effectively treat topical cancerous skin lesions when surgery is not feasible. However, these therapies are severely limited due to the protective nature of the skin and the fact that current topical treatments may cause skin irritation, burning, light sensitivity, scaling, and inflammation. To treat early-stage melanoma, we have developed a topical formulation of Navitoclax (NAVI), a BCL-2 inhibitor that upregulates apoptosis, in association with an ionic liquid composed of Choline Octanoate (COA) at a molar ratio of 1:1. NAVI is a small hydrophobic molecule that solubilizes at 20% (w/v) when dissolved into 50% (DW v/v) COA. […] Therefore, COA-mediated topical delivery of NAVI enhanced transportation through the skin barrier and held the drug in the deeper skin layers for an extended period compared to the control.\nThe main challenges in treating fibrosis with chemotherapeutics are epidermal layer penetration, the appropriate concentration, and drug retention within the layer for a more extended period. […]"}
{"molecule": "CC1(C)CCC(c2ccc(Cl)cc2)=C(CN2CCN(c3ccc(C(=O)NS(=O)(=O)c4ccc(N[C@H](CCN5CCOCC5)CSc5ccccc5)c(S(=O)(=O)C(F)(F)F)c4)cc3)CC2)C1", "note": "[NAVI, Navitoclax]", "values": [{"measurement": "solubility", "setting": "choline octanoate (COA) ionic liquid, aqueous with cosolvent or surfactant or cyclodextrin, with COA, read-out: solubility of NAVI increased by COA", "value": "≤ 150", "unit": "µg/mL"}, {"measurement": "solubility of NAVI", "setting": "dissolved into 50% (DW v/v) COA", "value": "20 % (w/v)"}]}
